Data on 30 molecules can be found in patent US20250145633A1, “SUBSTITUTED FURANOPYRIMIDINE COMPOUNDS AS PDE1 INHIBITORS” (Dart NeuroScience, LLC, priority 2017, published 2025).

For the assay, the target named is human PDE1B enzyme (Homo sapiens (Human), UniProt Q01064). Put plainly: IMAP TR-FRET PDE1B enzymatic assay. The format is biochemical. Particulars: negative log of half-maximal molar inhibitory concentration, 200 nM FAM-cAMP, values given as bins; for IC50: read-out: PDE1b (pIC50) (converted). As for the experimental part:
PDE1B inhibition was determined by an IMAP TR-FRET assay. The IMAP TR-FRET PDE assay was optimized for concentration of enzyme, Calmodulin, cAMP or cGMP substrate, DMSO tolerance, and incubation time.
Into each well of a solid white 1536 well plate (Corning) was dispensed 250 pg full-length recombinant NH-terminal GST tagged human PDE1B enzyme (BPS Bioscience Cat #60011, San Diego, CA) in 2.5 μL IMAP BSA reaction buffer (Molecular Devices, Sunnyvale, CA) containing 10 U/ml Calmodulin and 2.5 mM CaCl2) (Sigma Aldrich.) After a brief centrifugation, 30 nL of compound was added by transfer from 1 mM stock in DMSO using a Kalypsys 1536 Pintool. Plates were incubated for 5 minutes at room temperature before dispensing 1.5 μL of 533 nM 5-carboxy fluorescein (FAM)-labeled cAMP (Molecular Devices, Sunnyvale, CA) for a final concentration of 200 nM. After a brief centrifugation, the plates were incubated for 30 minutes at room temperature. The assay was terminated by adding 5 μL IMAP binding reagent/Tb complex (Molecular Devices, Sunnyvale, CA) to each well.
Plates were incubated for 1 hour at room temperature and were read on a Viewlux multimode plate reader (Perkin Elmer). The instrument was set to excite using the DUG11 filter and measure using 490/10 nm and 520/10 nm filters. Ratios of acceptor and donor were then calculated.
For IC50 calculations, the values of % efficacy versus a series of compound concentrations were then plotted using non-linear regression analysis of sigmoidal dose-response curves generated with the equation Y=[B+(T−B)]/[1+10((Log EC50−X)×Hill Slope)], where Y=percent activity, B=minimum percent efficacy, T=maximum percent efficacy, X=logarithm of compound and Hill Slope=slope factor or Hill coefficient. The IC50 value was determined by the concentration causing a half-maximal percent efficacy.
(In general: Time-resolved FRET reads energy transfer from a long-lived donor to a nearby acceptor.)

Turning to `Cc1oc2ncnc(NC3(C)CC3)c2c1C(=O)N1CCN(c2ccc(C#N)cc2)CC1` [Example 47, 4-(4-{6-Methyl-4-[(1-methylcyclopropyl)amino]furo[2,3-d]pyrimidine-5-carbonyl}piperazin-1-yl)benzonitrile], the “PDE1b (pIC50)” value is greater than 8. `Cc1oc2ncnc(NC3(C)CC3)c2c1C(=O)NCc1ccc(F)cc1` [Example 48, N-[(4-Fluorophenyl)methyl]-6-methyl-4-[(1-methylcyclopropyl)amino]furo[2,3-d]pyrimidine-5-carboxamide]: the IC50 was 10 to 100 nM. On the same count and under the same terms, the result for `Cc1oc2ncnc(NC3(C)CC3)c2c1C(=O)NCc1ccc(F)cn1` [Example 49, N-[(5-Fluoropyridin-2-yl)methyl]-6-methyl-4-[(1-methylcyclopropyl)amino]furo[2,3-d]pyrimidine-5-carboxamide] reads 10 to 100 nM; that for `Cc1oc2ncnc(NC3(C)CC3)c2c1C(=O)NCCc1ccc(F)cc1` [Example 50, N-[2-(4-Fluorophenyl)ethyl]-6-methyl-4-[(1-methylcyclopropyl)amino]furo[2,3-d]pyrimidine-5-carboxamide], 10 to 100 nM. In the case of `Cc1oc2ncnc(NC3(C)CC3)c2c1C(=O)NC(C)c1ccc(F)cn1` (stereo not drawn) [Example 51, N-[1-(5-Fluoropyridin-2-yl)ethyl]-6-methyl-4-[(1-methylcyclopropyl)amino]furo[2,3-d]pyrimidine-5-carboxamide], the “PDE1b (pIC50)” value is greater than 8. Take `Cc1oc2ncnc(NC3(C)CC3)c2c1C(=O)NCc1ccc(C#N)cc1` [Example 52, N-[(4-Cyanophenyl)methyl]-6-methyl-4-[(1-methylcyclopropyl)amino]furo[2,3-d]pyrimidine-5-carboxamide]: the IC50 is 10 to 100 nM. Same read-out and setting: as for `COc1cccc(CNC(=O)c2c(C)oc3ncnc(NC4(C)CC4)c23)n1` [Example 53, N-[(6-Methoxypyridin-2-yl)methyl]-6-methyl-4-[(1-methylcyclopropyl)amino]furo[2,3-d]pyrimidine-5-carboxamide], the figure is 10 to 100 nM.

`COc1ccc(CNC(=O)c2c(C)oc3ncnc(NC4(C)CC4)c23)cn1` [Example 54, N-[(6-Methoxypyridin-3-yl)methyl]-6-methyl-4-[(1-methylcyclopropyl)amino]furo[2,3-d]pyrimidine-5-carboxamide]: the “PDE1b (pIC50)” value is greater than 8.

`COc1ccc(CNC(=O)c2c(C)oc3ncnc(NC4(C)CC4)c23)nc1` [Example 55, N-[(5-Methoxypyridin-2-yl)methyl]-6-methyl-4-[(1-methylcyclopropyl)amino]furo[2,3-d]pyrimidine-5-carboxamide]: the “PDE1b (pIC50)” value is greater than 8. Take `Cc1oc2ncnc(NC3(C)CC3)c2c1C(=O)N1CC(c2ccc(F)cc2)C1` [Example 56, 5-[3-(4-Fluorophenyl)azetidine-1-carbonyl]-6-methyl-N-(1-methylcyclopropyl)furo[2,3-d]pyrimidin-4-amine]: the “PDE1b (pIC50)” value is recorded as greater than 8. Same read-out and setting: the result for `Cc1oc2ncnc(NC3(C)CC3)c2c1C(=O)N1CCC(c2ccc(F)cc2)C1` (stereo not drawn) [Example 57, 5-[3-(4-Fluorophenyl)pyrrolidine-1-carbonyl]-6-methyl-N-(1-methylcyclopropyl)furo[2,3-d]pyrimidin-4-amine] reads greater than 8. Take `Cc1oc2ncnc(NC3(C)CC3)c2c1C(=O)N1CCc2cc(C#N)ccc2C1` [Example 58, 2-{6-Methyl-4-[(1-methylcyclopropyl)amino]furo[2,3-d]pyrimidine-5-carbonyl}-1,2,3,4-tetrahydroisoquinoline-6-carbonitrile]: the IC50 is 10 to 100 nM. For the molecule `Cc1oc2ncnc(NC3(C)CC3)c2c1C(=O)NCc1ccc(OC(F)F)cn1` [Example 59, N-{[5-(Difluoromethoxy)pyridin-2-yl]methyl}-6-methyl-4-[(1-methylcyclopropyl)amino]furo[2,3-d]pyrimidine-5-carboxamide], the “PDE1b (pIC50)” value was greater than 8. On the same count and under the same terms, the result for `Cc1oc2ncnc(NC3(C)CC3)c2c1C(=O)N1CCC(c2ccc(F)cc2)CC1` [Example 60, 5-[4-(4-Fluorophenyl)piperidine-1-carbonyl]-6-methyl-N-(1-methylcyclopropyl)furo[2,3-d]pyrimidin-4-amine] reads greater than 8; that for `Cc1oc2ncnc(NC3(C)CC3)c2c1C(=O)N1CCN(c2ccc(F)cc2)CC1` [Example 61, 5-[4-(4-Fluorophenyl)piperazine-1-carbonyl]-6-methyl-N-(1-methylcyclopropyl)furo[2,3-d]pyrimidin-4-amine], greater than 8. As to `Cc1oc2ncnc(NC3(C)CC3)c2c1C(=O)N1CCC(F)(c2ccccn2)CC1` [Example 62, 5-[4-Fluoro-4-(pyridin-2-yl)piperidine-1-carbonyl]-6-methyl-N-(1-methylcyclopropyl)furo[2,3-d]pyrimidin-4-amine], the “PDE1b (pIC50)” value is given as greater than 8. On the same count and under the same terms, the result for `Cc1oc2ncnc(NC3(C)CC3)c2c1C(=O)N1CCC(O)(c2ccc(F)cc2)CC1` [Example 63, 4-(4-Fluorophenyl)-1-{6-methyl-4-[(1-methylcyclopropyl)amino]furo[2,3-d]pyrimidine-5-carbonyl}piperidin-4-ol] reads greater than 8. On to `Cc1oc2ncnc(NC3(C)CC3)c2c1C(=O)N1CCN(c2ccc(F)c(F)c2)C(=O)C1` [Example 64, 1-(3,4-Difluorophenyl)-4-{6-methyl-4-[(1-methylcyclopropyl)amino]furo[2,3-d]pyrimidine-5-carbonyl}piperazin-2-one], for which the IC50 was 10 to 100 nM. Regarding `Cc1oc2ncnc(NC3(C)CC3)c2c1C(=O)N1C[C@@H]2[C@H](C1)[C@H]2c1ccc(C(F)(F)F)cn1` [Example 65, 6-Methyl-N-(1-methylcyclopropyl)-5-[(1R,5S,6S)-6-[5-(trifluoromethyl)pyridin-2-yl]-3-azabicyclo[3.1.0]hexane-3-carbonyl]furo[2,3-d]pyrimidin-4-amine], the IC50 is 100 to 1000 nM. Turning to `Cc1oc2ncnc(NC3(C)CC3)c2c1C(=O)NCc1cccc(C#N)c1` [Example 66, N-[(3-Cyanophenyl)methyl]-6-methyl-4-[(1-methylcyclopropyl)amino]furo[2,3-d]pyrimidine-5-carboxamide], the “PDE1b (pIC50)” value is listed as greater than 8. The same measure, in the same setting: the result for `Cc1oc2ncnc(NC3(C)CC3)c2c1C(=O)N1CCC(O)(c2ccc(F)cc2)C1` (stereo not drawn) [Example 67, 3-(4-Fluorophenyl)-1-{6-methyl-4-[(1-methylcyclopropyl)amino]furo[2,3-d]pyrimidine-5-carbonyl}pyrrolidin-3-ol] reads greater than 8.

In the case of `Cc1oc2ncnc(NC3(C)CC3)c2c1C(=O)NC(C)c1ccc(F)cc1` (stereo not drawn) [Example 68, N-[1-(4-Fluorophenyl)ethyl]-6-methyl-4-[(1-methylcyclopropyl)amino]furo[2,3-d]pyrimidine-5-carboxamide], the IC50 was 10 to 100 nM. As to `Cc1oc2ncnc(NC3(C)CC3)c2c1C(=O)NC1(c2ccc(F)cc2)CC1` [Example 69, N-[1-(4-Fluorophenyl)cyclopropyl]-6-methyl-4-[(1-methylcyclopropyl)amino]furo[2,3-d]pyrimidine-5-carboxamide], the “PDE1b (pIC50)” value is greater than 8. `Cc1oc2ncnc(NC3(C)CC3)c2c1C(=O)N1CCC(c2ccccn2)C1` (stereo not drawn) [Example 70, 6-Methyl-N-(1-methylcyclopropyl)-5-[3-(pyridin-2-yl)pyrrolidine-1-carbonyl]furo[2,3-d]pyrimidin-4-amine]: the IC50 was 10 to 100 nM.

With `Cc1oc2ncnc(NC3(C)CC3)c2c1C(=O)N1CCC(c2cccnc2)C1` (stereo not drawn) [Example 71, 6-Methyl-N-(1-methylcyclopropyl)-5-[3-(pyridin-3-yl)pyrrolidine-1-carbonyl]furo[2,3-d]pyrimidin-4-amine], the IC50 is 10 to 100 nM. The same measure, in the same setting: as for `Cc1oc2ncnc(NC3(C)CC3)c2c1C(=O)N1CCC(c2ccncc2)C1` (stereo not drawn) [Example 72, 6-Methyl-N-(1-methylcyclopropyl)-5-[3-(pyridin-4-yl)pyrrolidine-1-carbonyl]furo[2,3-d]pyrimidin-4-amine], the figure is 10 to 100 nM; as for `Cc1oc2ncnc(NC3(C)CC3)c2c1C(=O)NCc1nccs1` [Example 73, 6-Methyl-4-[(1-methylcyclopropyl)amino]-N-(1,3-thiazol-2-ylmethyl)furo[2,3-d]pyrimidine-5-carboxamide], 10 to 100 nM; as for `Cc1oc2ncnc(NC3(C)CC3)c2c1C(=O)NCc1cncs1` [Example 74, 6-Methyl-4-[(1-methylcyclopropyl)amino]-N-(1,3-thiazol-5-ylmethyl)furo[2,3-d]pyrimidine-5-carboxamide], 10 to 100 nM. Turning to `Cc1oc2ncnc(NC3(C)CC3)c2c1C(=O)NCc1cscn1` [Example 75, 6-Methyl-4-[(1-methylcyclopropyl)amino]-N-(1,3-thiazol-4-ylmethyl)furo[2,3-d]pyrimidine-5-carboxamide], the IC50 is 10 to 100 nM. Same read-out and setting: as for `Cc1oc2ncnc(NC3(C)CC3)c2c1C(=O)NCc1ccccn1` [Example 76, 6-Methyl-4-[(1-methylcyclopropyl)amino]-N-(pyridin-2-ylmethyl)furo[2,3-d]pyrimidine-5-carboxamide], the figure is 10 to 100 nM.
